Source: patent publication US11319328B2 (priority 2017, dated 2022)

Columns and labels:
Test in all cases: cells
Format in all cases: cell-based
[1] = system: human normal liver cell HL7702; details: human normal hepatocytes HL7702, cultured 48 h, MTT
Description: (§1) A cell strain: Hepatoma HepG2, cervical cancer Hela, lung cancer A549, breast cancer MCF7 cell line and human normal liver cell HL7702 were purchased from Wuhan Boster Biological Technology Co., Ltd.;
(§2) HepG2, Hela, A549, MCF 7 cells in logarithmic growth phase and human normal hepatocytes HL7702 were centrifuged at 1500 rpm for 5 min, and the supernatant was discarded; the cells were digested with a suitable amount of trypsin, and then suspended with a suitable amount of culture medium (HepG2, Hela and HL7702 cells were suspended with penicillin-streptomycin RPMI1640 culture medium containing 10% calf serum, A549 and MCF 7 cells with penicillin-streptomycin high glucose DMEM culture medium containing 10% calf serum, to adjust the cell concentration to 1.5×10^4 cells/well, the cells were seeded in 96-well plates, and the following experimental groups were set:
(§3) 0.10 mL of the cell suspension was added to each well, and incubated at 37° C., 5% CO2 and saturated humidity for 12 h, and the culture medium was discarded when the cell density was nearly 70%. […] 100 μl of 5 mg/ml MTT was added per well, standing for 4 h at 37° C. 100 μl of DMSO was added to each well, followed by shaking on a shaker for 10 min at 37° C., the absorbance (OD) was measured at 492 nm, and the MTT ratio was calculated as the OD value of drug group/OD value of negative control group.

[2] = system: Hepatoma HepG2; details: cultured 48 h, MTT
Description: as §1, §2, §3

[3] = system: lung cancer A549; details: cultured 48 h, MTT
Description: as §1, §2, §3

[4] = system: breast cancer MCF7 cell line; details: cultured 48 h, MTT
Description: as §1, §2, §3

[5] = system: cervical cancer Hela; details: cultured 48 h, MTT
Description: as §1, §2, §3

IC50 ([2]; Homo sapiens) [µM] | IC50 ([3]; Homo sapiens) [µM] | IC50 ([4]; Homo sapiens) [µM] | IC50 ([5]; Homo sapiens) [µM] | SMILES | IC50 [1] [µM] | IC50 [2] [µM] | IC50 [3] [µM] | IC50 [4] [µM] | IC50 [5] [µM] | IC50 ([1]; L02) [µM]
– | – | – | – | COc1cc([C@@H]2c3cc4c(cc3[C@@H](Nc3ccc5c(c3)C(=O)c3ccccc3C5=O)[C@@H]3COC(=O)[C@H]23)OCO4)cc(OC)c1O [Compound 21, 4β-NH-(2-aminoanthraquinone)-4′-demethylepipodophyllotoxin] | 55.4 ± 6.2 | 1.1 ± 0.4 | > 100 | 4 ± 0.5 | 1.9 ± 0.3 | –
– | – | – | – | COc1cc(C2c3cc4c(cc3C(Nc3ccc5c(c3N)C(=O)c3ccccc3C5=O)C3COC(=O)C23)OCO4)cc(OC)c1O (stereo not drawn) [Compound 22, 4β-NH-(1,2-diaminoanthraquinone)-4′-demethylepipodophyllotoxin] | > 100 | > 100 | > 100 | 18.1 ± 2.8 | > 100 | –
– | – | – | – | COc1cc([C@@H]2c3cc4c(cc3[C@@H](Nc3cccc5c3C(=O)c3cccc(N)c3C5=O)[C@@H]3COC(=O)[C@H]23)OCO4)cc(OC)c1O [Compound 23, 4β-NH-(1,5-diaminoanthraquinone)-4′-demethylepipodophyllotoxin] | > 100 | > 100 | > 100 | > 100 | > 100 | –
– | – | – | – | COc1cc(C2c3cc4c(cc3C(Nc3ccc5c(c3)C(=O)c3ccc(N)cc3C5=O)C3COC(=O)C23)OCO4)cc(OC)c1O (stereo not drawn) [Compound 24, 4β-NH-(2,6-diaminoanthraquinone)-4′-demethylepipodophyllotoxin] | > 100 | > 100 | > 100 | 4.2 ± 1.1 | > 100 | –
– | – | – | – | COc1cc([C@@H]2c3cc4c(cc3[C@@H](Nc3nc(N)nc5ccccc35)[C@@H]3COC(=O)[C@H]23)OCO4)cc(OC)c1O [Compound 25, 4β-NH-(2,4-quinazolinediamine)-4′-demethylepipodophyllotoxin] | 16.9 ± 2.5 | 9.8 ± 1.7 | 3.6 ± 0.8 | 6.1 ± 1.3 | 3.6 ± 0.9 | –
– | – | – | – | COc1cc(C2c3cc4c(cc3C(Nc3ccc5ncccc5c3)C3COC(=O)C23)OCO4)cc(OC)c1O (stereo not drawn) [Compound 26, 4β-NH-(6-aminoquinoline)-4′-demethylepipodophyllotoxin] | 22.8 ± 4.2 | 10 ± 1.9 | 2 ± 0.5 | 4.3 ± 0.8 | 5.7 ± 1.1 | –
– | – | – | – | COc1cc(C2c3cc4c(cc3C(Nc3cccc5ncccc35)C3COC(=O)C23)OCO4)cc(OC)c1O (stereo not drawn) [Compound 27, 4β-NH-(5-aminoquinoline)-4′-demethylepipodophyllotoxin] | 15.6 ± 1.8 | 1.6 ± 0.8 | 1.3 ± 0.2 | 2.4 ± 0.9 | 2.1 ± 1 | –
– | – | – | – | COc1cc(C2c3cc4c(cc3C(Nc3cccc5cnccc35)C3COC(=O)C23)OCO4)cc(OC)c1O (stereo not drawn) [Compound 28, 4β-NH-(5-aminoisoquinoline)-4′-demethylepipodophyllotoxin] | 19.8 ± 2.1 | 2.8 ± 1.6 | 1.4 ± 0.6 | 2.5 ± 0.9 | 1.9 ± 0.9 | –
– | – | – | – | COc1cc([C@@H]2c3cc4c(cc3[C@@H](Nc3cccc5cccnc35)[C@@H]3COC(=O)[C@H]23)OCO4)cc(OC)c1O [Compound 29, 4β-NH-(8-aminoquinoline)-4′-demethylepipodophyllotoxin] | 73 ± 7.8 | 4.5 ± 1.5 | 2.8 ± 0.4 | 1.5 ± 0.4 | 3.8 ± 0.2 | –
– | – | – | – | COc1cc(C2c3cc4c(cc3C(Nc3cccc5ccc(C)nc35)C3COC(=O)C23)OCO4)cc(OC)c1O (stereo not drawn) [Compound 30, 4β-NH-(8-aminoquinaldine)-4′-demethylepipodophyllotoxin] | > 100 | 5 ± 1.1 | 0.5 ± 0.05 | 3 ± 0.5 | 4.2 ± 0.8 | –
– | – | – | – | COc1cc(C2c3cc4c(cc3C(Nc3ccc5[nH]ncc5c3)C3COC(=O)C23)OCO4)cc(OC)c1O (stereo not drawn) [Compound 31, 4β-NH-(5-indazolamine)-4′-demethylepipodophyllotoxin] | > 100 | 6.8 ± 1.5 | 1.7 ± 0.3 | 3.5 ± 0.3 | 4.3 ± 0.9 | –
– | – | – | – | COc1cc([C@@H]2c3cc4c(cc3[C@@H](Nc3ccc5[nH]ccc5c3)[C@@H]3COC(=O)[C@H]23)OCO4)cc(OC)c1O [Compound 34, 4β-NH-(5-aminoindole)-4′-demethylepipodophyllotoxin] | > 100 | > 100 | > 100 | 76.3 ± 5.7 | 21.7 ± 5.3 | –
– | – | – | – | COc1cc(C2c3cc4c(cc3C(Nc3ccc5cc[nH]c5c3)C3COC(=O)C23)OCO4)cc(OC)c1O (stereo not drawn) [Compound 35, 4β-NH-(6-aminoindole)-4′-demethylepipodophyllotoxin] | > 100 | 19.5 ± 2.4 | 6.5 ± 1 | 34.5 ± 3.8 | 21.1 ± 2.9 | –
– | – | – | – | COc1cc(C2c3cc4c(cc3C(Nc3cccc5cc[nH]c35)C3COC(=O)C23)OCO4)cc(OC)c1O (stereo not drawn) [Compound 36, 4β-NH-(7-aminoindole)-4′-demethylepipodophyllotoxin] | 31.5 ± 3.2 | 15.4 ± 2.2 | 19.5 ± 1.5 | 8 ± 5.5 | 15.4 ± 6.1 | –
– | – | – | – | COc1cc(C2c3cc4c(cc3C(Nc3ccccc3-c3nc5ccccc5[nH]3)C3COC(=O)C23)OCO4)cc(OC)c1O (stereo not drawn) [Compound 37, 4β-NH-(2-(2-aminophenyl)benzimidazole)-4′-demethylepipodophyllotoxin] | > 100 | > 100 | > 100 | > 100 | 48.6 ± 6.2 | –
20 ± 1.3 | 22.5 ± 1.8 | 53.8 ± 5.6 | 21.4 ± 1.6 | COc1cc([C@@H]2c3cc4c(cc3[C@@H](O[C@@H]3O[C@@H]5CO[C@@H](C)O[C@H]5[C@H](O)[C@H]3O)[C@H]3COC(=O)[C@H]23)OCO4)cc(OC)c1O [Etoposide, etoposide, reference compound] | – | – | – | – | – | 24.6 ± 3.8
